From ChEMBL document CHEMBL3991601, “The target landscape of clinical kinase drugs” (Science, 2017)
The source made the active and inactive calls.

Experiments:
[1] = target: Dual specificity protein kinase CLK2 (Homo sapiens, UniProt P49760)
[2] = target: Serine/threonine-protein kinase N3 (Homo sapiens, UniProt Q6P5Z2)
[3] = target: TRAF2 and NCK-interacting protein kinase (Homo sapiens, UniProt Q9UKE5)
[4] = target: Dual specificity protein kinase CLK4 (Homo sapiens, UniProt Q9HAZ1)
[5] = target: T1, Serine/threonine-protein kinase Nek9 (Homo sapiens, UniProt Q8TD19)
T1 sequence (Q8TD19 whole entry): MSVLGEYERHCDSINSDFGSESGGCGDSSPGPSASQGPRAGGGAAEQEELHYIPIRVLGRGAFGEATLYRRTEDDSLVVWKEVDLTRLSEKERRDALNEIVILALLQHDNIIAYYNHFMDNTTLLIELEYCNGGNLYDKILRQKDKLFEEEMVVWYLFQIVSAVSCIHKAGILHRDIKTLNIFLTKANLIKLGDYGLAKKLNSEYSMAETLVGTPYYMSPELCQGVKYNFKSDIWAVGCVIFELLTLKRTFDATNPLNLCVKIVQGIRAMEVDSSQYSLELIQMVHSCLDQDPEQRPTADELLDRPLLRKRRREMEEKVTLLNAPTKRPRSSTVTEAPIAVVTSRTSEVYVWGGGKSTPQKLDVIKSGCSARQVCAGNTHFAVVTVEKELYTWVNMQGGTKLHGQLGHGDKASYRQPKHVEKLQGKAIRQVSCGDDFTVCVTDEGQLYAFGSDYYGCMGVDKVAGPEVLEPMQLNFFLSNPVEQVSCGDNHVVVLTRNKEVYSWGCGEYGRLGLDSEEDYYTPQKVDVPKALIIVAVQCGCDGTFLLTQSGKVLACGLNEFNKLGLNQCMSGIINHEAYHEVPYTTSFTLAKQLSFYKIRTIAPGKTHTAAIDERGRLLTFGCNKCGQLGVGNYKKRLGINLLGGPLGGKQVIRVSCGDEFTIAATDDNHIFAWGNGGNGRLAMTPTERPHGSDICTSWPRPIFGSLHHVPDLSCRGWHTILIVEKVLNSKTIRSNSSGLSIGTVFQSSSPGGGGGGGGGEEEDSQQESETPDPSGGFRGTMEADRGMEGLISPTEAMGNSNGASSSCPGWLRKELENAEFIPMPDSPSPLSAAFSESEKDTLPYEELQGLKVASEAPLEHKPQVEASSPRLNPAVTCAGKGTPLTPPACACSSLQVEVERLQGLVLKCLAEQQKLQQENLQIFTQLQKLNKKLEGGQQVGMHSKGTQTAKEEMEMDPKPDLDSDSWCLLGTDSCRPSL

[6] = target: T2, Phosphatidylinositol 5-phosphate 4-kinase type-2 alpha (Homo sapiens, UniProt P48426)
T2 sequence (P48426 whole entry): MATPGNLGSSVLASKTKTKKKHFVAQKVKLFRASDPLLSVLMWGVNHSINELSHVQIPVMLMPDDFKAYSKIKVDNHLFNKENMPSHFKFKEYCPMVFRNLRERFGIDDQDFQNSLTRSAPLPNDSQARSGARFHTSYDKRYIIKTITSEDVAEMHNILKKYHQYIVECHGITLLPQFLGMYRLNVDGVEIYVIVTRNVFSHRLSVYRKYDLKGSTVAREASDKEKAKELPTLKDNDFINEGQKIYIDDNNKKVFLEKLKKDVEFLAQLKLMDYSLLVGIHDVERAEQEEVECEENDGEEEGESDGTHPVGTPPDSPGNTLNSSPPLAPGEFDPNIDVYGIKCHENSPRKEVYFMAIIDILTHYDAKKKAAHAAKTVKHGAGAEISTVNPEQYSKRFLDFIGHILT

[7] = target: Tyrosine-protein kinase Lyn (Homo sapiens, UniProt P07948)
[8] = target: T3, Acyl-CoA dehydrogenase family member 10 (Homo sapiens, UniProt Q6JQN1)
T3 sequence (Q6JQN1 whole entry): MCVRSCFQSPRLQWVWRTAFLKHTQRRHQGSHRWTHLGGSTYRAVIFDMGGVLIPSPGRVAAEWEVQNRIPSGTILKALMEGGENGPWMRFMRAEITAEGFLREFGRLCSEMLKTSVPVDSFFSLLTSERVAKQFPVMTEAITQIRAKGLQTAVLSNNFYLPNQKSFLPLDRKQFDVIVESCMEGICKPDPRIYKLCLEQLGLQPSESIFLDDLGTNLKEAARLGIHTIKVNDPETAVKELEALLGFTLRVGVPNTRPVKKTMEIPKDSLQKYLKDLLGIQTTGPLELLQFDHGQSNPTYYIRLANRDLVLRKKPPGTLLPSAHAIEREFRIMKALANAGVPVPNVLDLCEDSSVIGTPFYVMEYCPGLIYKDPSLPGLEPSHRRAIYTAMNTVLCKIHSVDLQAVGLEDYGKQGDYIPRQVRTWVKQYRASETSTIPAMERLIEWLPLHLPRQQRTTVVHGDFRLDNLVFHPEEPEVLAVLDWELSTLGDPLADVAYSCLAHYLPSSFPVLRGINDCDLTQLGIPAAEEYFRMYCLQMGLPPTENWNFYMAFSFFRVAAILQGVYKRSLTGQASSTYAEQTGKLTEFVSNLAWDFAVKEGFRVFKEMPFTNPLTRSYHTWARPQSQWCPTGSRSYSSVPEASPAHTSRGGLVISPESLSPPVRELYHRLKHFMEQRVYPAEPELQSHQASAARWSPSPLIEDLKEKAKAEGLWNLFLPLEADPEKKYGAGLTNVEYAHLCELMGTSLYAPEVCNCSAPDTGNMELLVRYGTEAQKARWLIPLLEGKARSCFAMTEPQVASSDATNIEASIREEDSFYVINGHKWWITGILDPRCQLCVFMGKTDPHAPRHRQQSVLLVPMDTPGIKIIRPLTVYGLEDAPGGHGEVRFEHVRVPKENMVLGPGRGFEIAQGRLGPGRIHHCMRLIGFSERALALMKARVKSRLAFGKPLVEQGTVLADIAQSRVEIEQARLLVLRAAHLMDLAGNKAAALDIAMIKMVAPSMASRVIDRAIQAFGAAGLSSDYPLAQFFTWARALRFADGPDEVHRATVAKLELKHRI

[9] = target: Mitogen-activated protein kinase 14 (Homo sapiens, UniProt Q16539)
[10] = target: Choline-phosphate cytidylyltransferase A (Homo sapiens, UniProt P49585)
[11] = target: Obg-like ATPase 1 (Homo sapiens, UniProt Q9NTK5)
Note: in the data inactive means no Kd found up to 30 µM.

Choline-phosphate cytidylyltransferase A, sequence (P49585 whole entry): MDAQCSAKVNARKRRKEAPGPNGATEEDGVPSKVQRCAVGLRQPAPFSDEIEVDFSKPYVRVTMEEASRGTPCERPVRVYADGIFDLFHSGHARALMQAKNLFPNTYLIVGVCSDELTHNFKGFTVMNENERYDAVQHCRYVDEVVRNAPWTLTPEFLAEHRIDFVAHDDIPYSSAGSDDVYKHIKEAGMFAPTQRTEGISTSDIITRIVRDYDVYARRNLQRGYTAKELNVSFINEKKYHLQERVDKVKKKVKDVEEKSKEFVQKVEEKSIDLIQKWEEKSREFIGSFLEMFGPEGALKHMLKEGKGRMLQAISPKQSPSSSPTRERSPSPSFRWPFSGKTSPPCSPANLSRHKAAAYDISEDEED
Dual specificity protein kinase CLK2, sequence (P49760 whole entry): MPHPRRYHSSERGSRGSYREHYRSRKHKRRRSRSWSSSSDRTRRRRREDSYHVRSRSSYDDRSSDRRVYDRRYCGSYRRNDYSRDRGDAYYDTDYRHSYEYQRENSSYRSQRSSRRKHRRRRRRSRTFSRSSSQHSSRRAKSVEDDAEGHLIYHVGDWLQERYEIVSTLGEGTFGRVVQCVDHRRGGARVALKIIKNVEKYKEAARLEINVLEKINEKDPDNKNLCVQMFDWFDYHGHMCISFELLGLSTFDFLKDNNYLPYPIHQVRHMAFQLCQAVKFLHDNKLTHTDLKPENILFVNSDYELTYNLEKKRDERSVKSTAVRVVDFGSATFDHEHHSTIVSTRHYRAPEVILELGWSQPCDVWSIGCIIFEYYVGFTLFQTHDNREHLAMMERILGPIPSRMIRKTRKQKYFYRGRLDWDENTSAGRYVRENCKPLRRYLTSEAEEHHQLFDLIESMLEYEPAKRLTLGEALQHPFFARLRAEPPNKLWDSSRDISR
Dual specificity protein kinase CLK4, sequence (Q9HAZ1 whole entry): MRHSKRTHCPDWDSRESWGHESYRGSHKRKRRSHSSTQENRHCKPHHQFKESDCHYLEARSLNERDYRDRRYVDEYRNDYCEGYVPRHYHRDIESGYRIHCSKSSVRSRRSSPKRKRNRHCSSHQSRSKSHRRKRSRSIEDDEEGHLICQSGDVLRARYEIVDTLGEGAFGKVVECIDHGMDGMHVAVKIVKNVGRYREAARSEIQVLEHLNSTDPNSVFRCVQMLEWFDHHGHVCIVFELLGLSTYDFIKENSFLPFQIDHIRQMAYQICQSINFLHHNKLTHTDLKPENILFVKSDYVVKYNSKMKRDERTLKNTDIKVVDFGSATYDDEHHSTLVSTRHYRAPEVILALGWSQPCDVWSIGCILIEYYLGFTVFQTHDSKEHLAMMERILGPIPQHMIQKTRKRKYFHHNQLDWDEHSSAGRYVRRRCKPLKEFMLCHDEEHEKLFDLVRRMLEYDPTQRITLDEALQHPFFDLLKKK
Serine/threonine-protein kinase N3, sequence (Q6P5Z2 whole entry): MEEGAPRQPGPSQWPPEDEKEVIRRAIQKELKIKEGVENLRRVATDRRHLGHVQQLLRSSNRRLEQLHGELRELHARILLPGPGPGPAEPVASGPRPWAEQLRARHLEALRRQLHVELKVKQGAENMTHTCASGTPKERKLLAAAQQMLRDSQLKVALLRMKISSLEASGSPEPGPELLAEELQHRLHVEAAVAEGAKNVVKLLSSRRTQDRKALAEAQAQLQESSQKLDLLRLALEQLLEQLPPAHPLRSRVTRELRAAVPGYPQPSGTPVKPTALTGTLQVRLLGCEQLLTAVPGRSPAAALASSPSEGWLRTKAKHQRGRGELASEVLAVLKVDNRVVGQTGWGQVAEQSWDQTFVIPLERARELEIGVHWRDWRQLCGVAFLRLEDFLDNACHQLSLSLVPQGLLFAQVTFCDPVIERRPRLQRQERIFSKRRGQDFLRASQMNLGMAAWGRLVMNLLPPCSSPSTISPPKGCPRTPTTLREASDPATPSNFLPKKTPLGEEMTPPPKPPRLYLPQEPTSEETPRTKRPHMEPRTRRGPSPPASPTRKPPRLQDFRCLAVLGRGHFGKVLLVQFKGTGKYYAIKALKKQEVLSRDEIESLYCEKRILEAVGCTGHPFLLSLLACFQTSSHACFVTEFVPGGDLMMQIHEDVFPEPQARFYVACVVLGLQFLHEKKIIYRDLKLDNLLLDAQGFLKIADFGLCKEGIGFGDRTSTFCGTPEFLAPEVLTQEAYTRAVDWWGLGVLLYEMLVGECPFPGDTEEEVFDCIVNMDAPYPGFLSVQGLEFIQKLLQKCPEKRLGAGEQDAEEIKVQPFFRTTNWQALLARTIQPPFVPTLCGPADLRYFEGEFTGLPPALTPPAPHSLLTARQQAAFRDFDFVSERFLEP
Tyrosine-protein kinase Lyn, sequence (P07948 whole entry): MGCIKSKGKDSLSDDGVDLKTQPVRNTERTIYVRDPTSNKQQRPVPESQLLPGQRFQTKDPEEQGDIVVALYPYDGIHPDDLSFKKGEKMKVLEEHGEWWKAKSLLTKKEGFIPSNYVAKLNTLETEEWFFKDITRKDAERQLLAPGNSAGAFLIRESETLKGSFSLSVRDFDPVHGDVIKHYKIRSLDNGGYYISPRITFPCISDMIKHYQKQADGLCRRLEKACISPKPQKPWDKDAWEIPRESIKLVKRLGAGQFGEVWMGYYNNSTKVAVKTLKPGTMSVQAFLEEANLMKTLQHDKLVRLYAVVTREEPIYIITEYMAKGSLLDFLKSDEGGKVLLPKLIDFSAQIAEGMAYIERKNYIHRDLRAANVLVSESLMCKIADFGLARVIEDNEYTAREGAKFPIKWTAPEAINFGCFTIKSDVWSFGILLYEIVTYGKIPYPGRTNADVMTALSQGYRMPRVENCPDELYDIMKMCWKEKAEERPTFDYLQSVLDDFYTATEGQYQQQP
Obg-like ATPase 1, sequence (Q9NTK5 whole entry, looked up): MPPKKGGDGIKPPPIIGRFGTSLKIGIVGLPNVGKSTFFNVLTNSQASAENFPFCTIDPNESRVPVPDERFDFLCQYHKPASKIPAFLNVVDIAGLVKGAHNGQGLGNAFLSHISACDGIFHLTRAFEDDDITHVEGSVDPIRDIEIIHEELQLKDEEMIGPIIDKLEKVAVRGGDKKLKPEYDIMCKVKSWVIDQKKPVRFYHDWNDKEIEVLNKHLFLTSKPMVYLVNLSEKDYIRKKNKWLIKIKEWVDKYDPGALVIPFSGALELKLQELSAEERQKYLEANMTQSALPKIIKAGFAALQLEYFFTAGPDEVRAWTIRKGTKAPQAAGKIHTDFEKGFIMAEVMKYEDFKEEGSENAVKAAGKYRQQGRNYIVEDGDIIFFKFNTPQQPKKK
Mitogen-activated protein kinase 14, sequence (Q16539 whole entry): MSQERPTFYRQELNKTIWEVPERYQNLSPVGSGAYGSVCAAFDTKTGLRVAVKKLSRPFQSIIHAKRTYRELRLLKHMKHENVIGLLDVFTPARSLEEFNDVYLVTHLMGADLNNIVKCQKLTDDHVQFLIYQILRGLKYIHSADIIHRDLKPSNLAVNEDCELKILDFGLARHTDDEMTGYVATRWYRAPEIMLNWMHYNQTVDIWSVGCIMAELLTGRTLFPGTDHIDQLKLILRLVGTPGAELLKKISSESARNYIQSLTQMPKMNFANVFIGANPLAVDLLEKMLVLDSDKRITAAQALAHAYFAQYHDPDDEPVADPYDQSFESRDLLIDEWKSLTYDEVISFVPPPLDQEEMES
TRAF2 and NCK-interacting protein kinase, sequence (Q9UKE5 whole entry): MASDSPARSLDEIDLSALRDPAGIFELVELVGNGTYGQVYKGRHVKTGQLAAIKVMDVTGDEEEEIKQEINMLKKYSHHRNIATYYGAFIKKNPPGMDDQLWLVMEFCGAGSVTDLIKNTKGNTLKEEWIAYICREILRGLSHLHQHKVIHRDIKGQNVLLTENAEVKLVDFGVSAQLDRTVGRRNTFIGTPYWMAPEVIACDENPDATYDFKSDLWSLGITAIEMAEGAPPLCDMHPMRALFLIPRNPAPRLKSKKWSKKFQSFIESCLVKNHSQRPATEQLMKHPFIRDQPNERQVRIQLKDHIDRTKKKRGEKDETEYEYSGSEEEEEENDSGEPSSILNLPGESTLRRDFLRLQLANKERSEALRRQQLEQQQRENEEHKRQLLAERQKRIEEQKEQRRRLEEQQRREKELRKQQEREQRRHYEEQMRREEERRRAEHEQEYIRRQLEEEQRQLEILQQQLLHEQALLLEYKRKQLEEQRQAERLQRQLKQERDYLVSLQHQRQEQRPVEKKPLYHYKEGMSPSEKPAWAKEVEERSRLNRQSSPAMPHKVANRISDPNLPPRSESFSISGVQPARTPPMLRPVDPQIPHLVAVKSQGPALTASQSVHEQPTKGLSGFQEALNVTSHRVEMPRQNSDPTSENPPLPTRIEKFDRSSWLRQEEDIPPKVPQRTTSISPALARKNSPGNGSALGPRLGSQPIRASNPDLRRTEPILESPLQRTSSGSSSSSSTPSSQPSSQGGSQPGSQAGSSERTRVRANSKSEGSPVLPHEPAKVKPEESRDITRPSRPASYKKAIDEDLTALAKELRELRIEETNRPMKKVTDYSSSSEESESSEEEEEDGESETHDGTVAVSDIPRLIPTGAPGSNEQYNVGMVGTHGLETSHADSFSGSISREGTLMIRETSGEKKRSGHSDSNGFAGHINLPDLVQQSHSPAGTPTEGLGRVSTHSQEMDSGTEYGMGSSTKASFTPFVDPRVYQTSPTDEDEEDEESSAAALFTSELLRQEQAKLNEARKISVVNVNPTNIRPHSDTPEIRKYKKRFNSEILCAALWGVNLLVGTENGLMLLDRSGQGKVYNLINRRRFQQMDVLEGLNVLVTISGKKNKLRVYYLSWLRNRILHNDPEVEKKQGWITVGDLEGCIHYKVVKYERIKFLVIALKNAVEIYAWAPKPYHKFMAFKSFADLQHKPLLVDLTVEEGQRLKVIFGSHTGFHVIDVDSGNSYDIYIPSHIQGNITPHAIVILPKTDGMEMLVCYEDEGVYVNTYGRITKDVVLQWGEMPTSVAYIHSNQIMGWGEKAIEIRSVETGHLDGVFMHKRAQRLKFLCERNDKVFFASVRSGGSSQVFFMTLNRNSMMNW

| SMILES | Kd [1] | Kd [2] | Kd [3] | Kd [4] | Kd [5] | Kd [6] | Kd [7] | Kd [8] | Kd [9] | Kd [10] | Kd [11] |
| --- | --- | --- | --- | --- | --- | --- | --- | --- | --- | --- | --- |
| Cn1cc(-c2ccc3nnc(C(F)(F)c4ccc5ncccc5c4)n3n2)cn1 [JNJ-38877605] | > 30 µM (inactive) | > 30 µM (inactive) | > 30 µM (inactive) | > 30 µM (inactive) | > 30 µM (inactive) | > 30 µM (inactive) | > 30 µM (inactive) | > 30 µM (inactive) | > 30 µM (inactive) | > 30 µM (inactive) | – |
| CN(C)C(=O)c1cc2cnc(Nc3ccc(N4CCNCC4)cn3)nc2n1C1CCCC1 [RIBOCICLIB] | – | – | > 30 µM (inactive) | > 30 µM (inactive) | > 30 µM (inactive) | > 30 µM (inactive) | > 30 µM (inactive) | > 30 µM (inactive) | > 30 µM (inactive) | > 30 µM (inactive) | > 30 µM (inactive) |
| CCc1cnn2c(NCc3ccc[n+]([O-])c3)cc(N3CCCC[C@H]3CCO)nc12 [DINACICLIB] | – | > 30 µM (inactive) | > 30 µM (inactive) | – | > 30 µM (inactive) | > 30 µM (inactive) | > 30 µM (inactive) | > 30 µM (inactive) | – | > 30 µM (inactive) | > 30 µM (inactive) |
| CNC(=O)CN1CCC(Oc2cc3c(Nc4cccc(Cl)c4F)ncnc3cc2OC)CC1 [SAPITINIB] | – | > 30 µM (inactive) | > 30 µM (inactive) | > 30 µM (inactive) | > 30 µM (inactive) | > 30 µM (inactive) | 2.48 µM (active) | > 30 µM (inactive) | > 30 µM (inactive) | > 30 µM (inactive) | – |
| COc1cc(N2CCC(N3CCN(C)CC3)CC2)ccc1Nc1ncnc(Nc2ccccc2S(=O)(=O)C(C)C)n1 [ASP-3026] | > 30 µM (inactive) | – | > 30 µM (inactive) | > 30 µM (inactive) | > 30 µM (inactive) | – | > 30 µM (inactive) | – | > 30 µM (inactive) | > 30 µM (inactive) | – |
| Cc1cc2c(F)c(Oc3ncnn4cc(OC[C@@H](C)OC(=O)[C@H](C)N)c(C)c34)ccc2[nH]1 [BRIVANIB ALANINATE] | > 30 µM (inactive) | > 30 µM (inactive) | > 30 µM (inactive) | – | > 30 µM (inactive) | > 30 µM (inactive) | > 30 µM (inactive) | > 30 µM (inactive) | > 30 µM (inactive) | > 30 µM (inactive) | – |
| C=CC(=O)N1CCC(Oc2cc3c(Nc4ccc(Cl)c(Cl)c4F)ncnc3cc2OC)CC1 [POZIOTINIB] | – | – | > 30 µM (inactive) | – | > 30 µM (inactive) | – | > 30 µM (inactive) | > 30 µM (inactive) | > 30 µM (inactive) | > 30 µM (inactive) | > 30 µM (inactive) |
| Cc1ccc(-n2nc(C(C)(C)C)cc2NC(=O)NCc2cc(F)ccc2Oc2ccc3c(cnn3CCO)c2)cc1 [PEXMETINIB] | > 30 µM (inactive) | > 30 µM (inactive) | > 30 µM (inactive) | > 30 µM (inactive) | > 30 µM (inactive) | > 30 µM (inactive) | 2.5 µM (active) | > 30 µM (inactive) | – | > 30 µM (inactive) | > 30 µM (inactive) |
| CN1N=C(N)c2cn([C@@H]3O[C@H](COP(=O)(O)O)[C@@H](O)[C@H]3O)c3ncnc1c23 [TRICIRIBINE PHOSPHATE] | – | – | > 30 µM (inactive) | – | > 30 µM (inactive) | > 30 µM (inactive) | > 30 µM (inactive) | > 30 µM (inactive) | > 30 µM (inactive) | > 30 µM (inactive) | > 30 µM (inactive) |
| OCCn1cc(-c2cnc3nnn(Cc4ccc5ncccc5c4)c3n2)cn1 [PF-04217903] | – | > 30 µM (inactive) | > 30 µM (inactive) | – | > 30 µM (inactive) | > 30 µM (inactive) | > 30 µM (inactive) | > 30 µM (inactive) | – | > 30 µM (inactive) | > 30 µM (inactive) |
| CN1CCC(CNc2ccc3ncc(-c4cccc(OC(F)(F)F)c4)n3n2)CC1 [SGI-1776] | > 30 µM (inactive) | > 30 µM (inactive) | > 30 µM (inactive) | – | > 30 µM (inactive) | > 30 µM (inactive) | > 30 µM (inactive) | > 30 µM (inactive) | > 30 µM (inactive) | > 30 µM (inactive) | > 30 µM (inactive) |
| Cc1nc(N)sc1-c1ccnc(Nc2ccc(N3CCOCC3)cc2)n1 [CYC-116] | – | > 30 µM (inactive) | 2.14 µM (active) | – | 0.133 µM (active) | > 30 µM (inactive) | – | 0.716 µM | > 30 µM (inactive) | > 30 µM (inactive) | > 30 µM (inactive) |
| CCN1CCN(Cc2ccc(-c3cc4c(N[C@H](C)c5ccccc5)ncnc4[nH]3)cc2)CC1 [AEE-788] | > 30 µM (inactive) | – | > 30 µM (inactive) | – | > 30 µM (inactive) | – | > 30 µM (inactive) | – | > 30 µM (inactive) | > 30 µM (inactive) | > 30 µM (inactive) |
| N[C@@H]1CCCN(c2c(/C=C3\SC(=O)NC3=O)cccc2-c2ccccc2)C1 | > 30 µM (inactive) | – | > 30 µM (inactive) | – | > 30 µM (inactive) | > 30 µM (inactive) | > 30 µM (inactive) | > 30 µM (inactive) | > 30 µM (inactive) | > 30 µM (inactive) | > 30 µM (inactive) |
| O=C(Nc1ccc(-c2ccnc(Nc3ccc(N4CCOCC4)cc3)n2)cc1)C1CCCN1 (centres undefined) [XL-019] | > 30 µM (inactive) | > 30 µM (inactive) | > 30 µM (inactive) | > 30 µM (inactive) | 2.19 µM (active) | – | > 30 µM (inactive) | > 30 µM (inactive) | > 30 µM (inactive) | > 30 µM (inactive) | > 30 µM (inactive) |
| Cc1cc([C@@H](C)Nc2ccccc2C(=O)O)c2nc(N3CCOCC3)cc(=O)n2c1 [AZD-6482] | > 30 µM (inactive) | > 30 µM (inactive) | > 30 µM (inactive) | > 30 µM (inactive) | > 30 µM (inactive) | – | > 30 µM (inactive) | > 30 µM (inactive) | > 30 µM (inactive) | > 30 µM (inactive) | > 30 µM (inactive) |
